This is an account of results in US9266880B2, “Substituted azaindazole compounds” (Bristol-Myers Squibb Company, priority 2010, dated 2016).

This assay deals with Human CYP17 (Homo sapiens (Human), UniProt P05093). Description: CYP17 Total SPA Assay. Format: biochemical. The settings on record: microsomes from HEK2 cells stably transfected with CYP17; 3H-Pregnenolone 1 uM, NADPH 2 mM; 45 minutes at room temperature. As for the experimental part: The assays were performed in U-bottom 384-well optiplates. The final assay volume was 15 μl prepared from 7.5 μl additions of microsomes (prepared as a high-speed pellet from homogenized HEK2 cells stably transfected with CYP17), substrates (3H— Pregnenolone and NADPH) and test compounds in assay buffer (50 mM Potassium phosphate pH 7.2, 10% glycerol). The reaction was initiated by the combination of the microsomes and substrates in wells containing compound. The reaction was incubated at room temperature for 45 minutes and terminated by adding 7.5 μl of 0.2N HCl to each well. Following an incubation period of 10 minutes, anti-DHEA-coated SPA beads were added to the terminated reaction. The plate was sealed and incubated overnight with shaking at 4° C. The beads were allowed to settle in the plate for 1 hour and the plate read on a TOPCOUNT® (Perkin-Elmer) plate reader.
Chain of Human CYP17 (P05093 whole entry): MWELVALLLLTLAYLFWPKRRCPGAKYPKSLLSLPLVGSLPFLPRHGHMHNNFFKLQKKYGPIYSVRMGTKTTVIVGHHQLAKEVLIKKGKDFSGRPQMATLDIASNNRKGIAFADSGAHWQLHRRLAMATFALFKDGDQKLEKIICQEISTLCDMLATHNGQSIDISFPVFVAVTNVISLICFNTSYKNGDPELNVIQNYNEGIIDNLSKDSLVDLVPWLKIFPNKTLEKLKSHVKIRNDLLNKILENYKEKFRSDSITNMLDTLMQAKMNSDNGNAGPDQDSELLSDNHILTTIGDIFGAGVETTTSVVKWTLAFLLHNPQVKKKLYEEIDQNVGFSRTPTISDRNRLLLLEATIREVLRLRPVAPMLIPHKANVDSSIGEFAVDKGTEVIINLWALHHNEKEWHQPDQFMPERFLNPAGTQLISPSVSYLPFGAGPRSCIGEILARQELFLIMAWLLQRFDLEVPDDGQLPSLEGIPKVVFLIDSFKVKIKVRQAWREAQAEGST
Inhibition data were calculated by comparison to no enzyme control reactions for 100% inhibition and vehicle-only reactions for 0% inhibition. The final concentration of reagents in the assays are NADPH, 2 mM; 3H-Pregnenolone, 1 uM; microsomes, 1.25 ug/ml; Anti-DHEA-SPA beads (0.125 mg/well) in 0.5% Triton X-100 and DMSO, 0.05%. Dose response curves were generated to determine the concentration required inhibiting 50% of enzyme activity (IC50). Compounds were dissolved at 10 mM in dimethylsulfoxide (DMSO) and evaluated at eleven concentrations, each in duplicate. IC50 values were derived by non-linear regression analysis.
Usually IC50 stands for the concentration that gives 50% inhibition. As to `Fc1ccc(-n2ncc3c(-c4cncc5ccccc45)ccnc32)cc1` [Example 1, 4-(1-(4-Fluorophenyl)-1H-pyrazolo[3,4-b]pyridin-4-yl)isoquinoline], the IC50 came out at 128 nM.

Regarding `NS(=O)(=O)c1cccc(-n2ncc3c(-c4cncc5ccccc45)ccnc32)c1` [Example 7, 3-(4-(Isoquinolin-4-yl)-1H-pyrazolo[3,4-b]pyridin-1-yl)benzenesulfonamide], the IC50 is 23 nM.

For the molecule `NS(=O)(=O)c1cccc(-n2ncc3c(-c4cncc5ncccc45)ccnc32)c1` [Example 5, 3-(4-(1,7-Naphthyridin-5-yl)-1H-pyrazolo[3,4-b]pyridin-1-yl)benzenesulfonamide], the IC50 is 206 nM.

With `Cn1cncc1-c1ccnc2c1cnn2-c1cccc(S(N)(=O)=O)c1` [Example 6, 3-(4-(1-Methyl-1H-imidazol-5-yl)-1H-pyrazolo[3,4-b]pyridin-1-yl)benzenesulfonamide], the IC50 stood at 271 nM.

Regarding `Fc1ccc(-n2ncc3c(-c4cncn5cccc45)ccnc32)c(F)c1` [Example 8, 1-(2,4-Difluorophenyl)-4-(pyrrolo[1,2-c]pyrimidin-4-yl)-1H-pyrazolo[3,4-b]pyridine], the IC50 worked out at 76 nM.

With `Fc1ccc(-n2ncc3c(-c4cncc5ncccc45)ccnc32)cc1` [Example 3, 5-(1-(4-Fluorophenyl)-1H-pyrazolo[3,4-b]pyridin-4-yl)-1,7-naphthyridine], the IC50 was found to be 41 nM.

Take `Cn1cncc1-c1ccnc2c1cnn2-c1ccc(F)cc1` [Example 4, 1-(4-Fluorophenyl)-4-(1-methyl-1H-imidazol-5-yl)-1H-pyrazolo[3,4-b]pyridine]: the IC50 came out at 50 nM.

For `Fc1ccc(-n2ncc3c(-n4ccnc4)ccnc32)cc1` [Example 2, 1-(4-Fluorophenyl)-4-(1H-imidazol-1-yl)-1H-pyrazolo[3,4-b]pyridine], the IC50 was determined as 640 nM.
